Results from US20190083497A1, “MODULATION OF BLOOD BRAIN BARRIER PERMEABILITY” (Cornell University, priority 2008, published 2019).

Assays:
Assay type in all cases: in vivo, mouse
EAE-induced mice = assay: EAE induction and scoring (MOG35-55/CFA + pertussis toxin); details: wild type mice; 2 mg/kg (1 mg/kg s.c. and 1 mg/kg i.p.) in 45% DMSO, 1 day prior to and daily for 30 days; vs DMSO alone
Description: C57BL/6 and tcrα^−/− mice on the C57BL/6 background were purchased from The Jackson Laboratories. Mice were bred and housed under specific pathogen-free conditions at Cornell University or the University of Turku. For adenosine receptor blockade experiments, mice were given drinking water supplemented with 0.6 g/L of caffeine (Sigma) or 2 mg/kg SCH58261 (1 mg/kg s.c. and 1 mg/kg i.p.) in DMSO (45% vol. in PBS) or 45% DMSO alone starting 1 day before EAE induction and continuing throughout the experiment. All procedures performed on mice were approved by the relevant animal review committee.
EAE was induced by subjecting mice to the myelin oligodendrocyte glycoprotein (“MOG”) EAE-inducing regimen as described in Swanborg, “Experimental Autoimmune Encephalomyelitis in Rodents as a Model for Human Demyelinating Disease,” Clin. Immunol. […] Briefly, a 1:1 emulsion of MOG35-55 peptide (3 mg/ml in PBS) (Invitrogen) and complete Freund's adjuvant (CFA, Sigma) was injected subcutaneously (50 μl) into each flank. Pertussis toxin (PTX, 20 ng) (Biological Laboratories Inc.) was given intravenously (200 μl in PBS) at the time of immunization and again 2 days later. Mice were scored daily for EAE based on disease symptom severity; 0=no disease, 0.5 -1=weak/limp tail, 2=limp tail and partial hind limb paralysis, 3=total hind limb paralysis, 4=both hind limb and fore limb paralysis, 5=death. Mice with a score of 4 were euthanized.
Wild type mice were given 1 mg/kg of SCH58261 in DMSO or DMSO alone both i.p. and s.c. (for a total of 2 mg/kg) 1 day prior to EAE induction and daily for 30 days throughout the course of the experiment (FIG. 7C).

[1] = test system: CNS lymphocyte infiltration; assay: CD4+ infiltrating lymphocytes in brain and spinal cord after EAE induction (immunohistochemistry); details: wild type mice, day 15 post-EAE induction; 2 mg/kg daily; vs DMSO treated mice
Description: FIGS. 7A-7D show adenosine receptor blockade protects mice from EAE development. […] Results are from one experiment (n=5 mice per group). […] Samples were run in triplicate; error bars represent the standard error of the mean. […] Eight anatomically similar fields per brain and 4 fields per spinal cord per mouse were analyzed at 10×magnification (n=4 mice). Error bars represent the standard error of the mean.
Anesthetized mice were perfused with PBS, and brains, spleens, and spinal cords were isolated and snap frozen in Tissue Tek-OCT medium. Five μm sections (brains in a sagittal orientation) were affixed to Supefrost/Plus slides (Fisher), fixed in acetone, and stored at −80° C. […]
(§1) As CD73 catalyzes the breakdown of AMP to adenosine and ARs are expressed in the CNS (Tsutsui et al., “A1 Adenosine Receptor Upregulation and Activation Attenuates Neuroinflammation and Demyelination in a Model of Multiple Sclerosis,” J. Neurosci. 24:1521-1529 (2004)); Rosi et al., The Influence of Brain Inflammation Upon Neuronal Adenosine A2B Receptors,” J. Neurochem. 86:220-227 (2003), which are hereby incorporated by reference in their entirety), it was next determined if AR signaling is important during EAE progression. […] Since CD73 is highly expressed on the choroid plexus (FIG. 6C), it was next determined if ARs are also expressed on the choroid plexus. […]

ICAM-1 = ICAM-1 expression at the choroid plexus after EAE induction (immunohistochemistry); details: wild type mice, day 15 post-EAE induction; 2 mg/kg daily; vs DMSO
Description: Mice were treated with the A2a adenosine receptor antagonist SCH58261 2 mg/kg (1 mg/kg given s.c. and 1 mg/kg given i.p.) in DMSO (n=4 mice/group) or DMSO alone (n=5 mice/group) 1 day prior to and daily up to day 30 following EAE induction. […] Frozen tissue sections from day 15 post-EAE induction in SCH58261 and DMSO treated mice were examined for ICAM-1 expression at the choroid plexus. WT treated DMSO (left) or SCH58261 (right) and stained for ICAM-1 (red staining, white arrows) and DAPI (blue, nuclei) at 40× magnification. Images are from 4 separate mice.
Anesthetized mice were perfused with PBS, and brains, spleens, and spinal cords were isolated and snap frozen in Tissue Tek-OCT medium. […]
as §1

blood brain barrier = assay: FITC-Dextran extravasation through the brain endothelium; details: wild type mice (FIG. 16)
Description: In order to examine the effects of caffeine, a general adenosine receptor antagonist, on blood brain barrier permeability, mice were fed caffeine for several days and then injected with FITC Dextran, commonly used to assess endothelial permeability.
More particularly, mice were fed 0.6 g/l caffeine (Sigma, St. Louis, Mo.) in water or regular water ad lib for five days. Mice were injected IP with FITC Dextran (10,000 MW, Molecular Probes, Eugene, Oreg.) and after 30 minutes mice were perfused with ice cold PBS via the left ventricle. Brains were removed and snap frozen in OCT (Tissue Tek, Torrance, Calif.) and stored at −80° C. until sectioning. Tissue sections (5 μm) were stained with hematoxylin for light microscopy and with DAPI for a fluorescent counterstain.

Nc1nc2c(cnn2CCc2ccccc2)c2nc(-c3ccco3)nn12 [SCH58261]
EAE development (mean EAE score) (EAE-induced mice): dramatically protected against EAE development | frequency of CD4 lymphocytes in the brain and spinal cord [1]: significantly lower frequency of CD4 lymphocytes in the brain and spinal cord | ICAM-1 up regulation on the choroid plexus (ICAM-1): prevented the up regulation of ICAM-1 | FITC-Dextran extravasation across the blood brain barrier (blood brain barrier): inhibit FITC-Dextran extravasation
